According to patent publication US11466016B2, “Pharmaceutical compounds” (priority 2018, dated 2022):
Counter-ions that a name gives are not always drawn.

Biological target: SHP2 (Homo sapiens (Human), UniProt Q06124)
Experiment: SHP2 Biochemical Assay (DiFMUP conversion, pIRS1 activating peptide)
Conditions: DiFMUP substrate, 0.25 μM pIRS1 peptide, 30 min pre-incubation; average where more than one data point; read-out: SHP2 (IC50)
Method: SHP2 activity was monitored by measuring the conversion of the surrogate substrate 6,8-difluoromethylumbelliferyl phosphate (DiFMUP) to the fluorescent product, 6,8-difluoromethylumbelliferone (DiFMU).
SHP2 was pre-incubated with test compounds and the activating peptide pIRS1 (H2N-LN(pY)IDLDLV-(PEG)8-LST(pY)ASINFQK-amide) for 30 min, prior to addition of the […] (DiFMUP), (Thermo Fisher D6567). […] Rates of reaction were then measured over 30 min by monitoring fluorescence on a BMG Pherastar reader at excitation 360 nm/emission 450 nm. IC50 values were calculated from the normalized dose-response plots using four parameter logistic curve fit.

SHP2, sequence (Q06124 whole entry): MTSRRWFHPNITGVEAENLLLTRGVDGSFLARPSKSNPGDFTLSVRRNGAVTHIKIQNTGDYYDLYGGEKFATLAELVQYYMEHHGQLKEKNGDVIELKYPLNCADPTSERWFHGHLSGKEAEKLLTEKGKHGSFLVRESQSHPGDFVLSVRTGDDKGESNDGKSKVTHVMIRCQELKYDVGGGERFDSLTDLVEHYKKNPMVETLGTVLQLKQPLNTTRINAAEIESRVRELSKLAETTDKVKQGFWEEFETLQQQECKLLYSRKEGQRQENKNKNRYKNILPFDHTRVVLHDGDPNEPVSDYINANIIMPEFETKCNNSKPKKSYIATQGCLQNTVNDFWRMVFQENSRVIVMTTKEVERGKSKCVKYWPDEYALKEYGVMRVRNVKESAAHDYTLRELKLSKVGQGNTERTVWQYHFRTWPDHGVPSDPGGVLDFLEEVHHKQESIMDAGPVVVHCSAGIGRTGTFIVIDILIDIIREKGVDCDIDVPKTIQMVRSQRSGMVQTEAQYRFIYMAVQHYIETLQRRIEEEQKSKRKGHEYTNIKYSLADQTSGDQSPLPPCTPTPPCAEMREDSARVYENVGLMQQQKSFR

First: Cc1nc2c(-c3ccc4nn(C)cc4c3Cl)c[nH]c2nc1N1[C@@H]2CC[C@H]1C[C@@H](N)C2 [Example 17, endo-8-[7-(4-chloro-2-methyl-2H-indazol-5-yl)-2-methyl-5H-pyrrolo[2,3-b]pyrazin-3-yl]-8-azabicyclo[3.2.1]octan-3-amine]
Second: Cn1cc2c(Cl)c(-c3c[nH]c4nc(N5[C@@H]6CC[C@H]5C[C@@H](N)C6)cnc34)ccc2n1 [Example 3, endo-8-[7-(4-chloro-2-methyl-2H-indazol-5-yl)-5H-pyrrolo[2,3-b]pyrazin-3-yl]-8-azabicyclo[3.2.1]octan-3-amine]
The IC50 of the first is 2-fold higher: 0.02 µM for the first, 0.01 µM for the second.

Cn1ccc2c(Cl)c(-c3c[nH]c4nc(N5CC[C@H](N)[C@H](F)C5)cnc34)ccc2c1=O [Example 71, 6-{3-[(3R,4S)-4-amino-3-fluoropiperidin-1-yl]-5H-pyrrolo[2,3-b]pyrazin-7-yl}-5-chloro-2-methyl-1,2-dihydroisoquinolin-1-one, hydrochloride salt] and Cn1cc2c(Cl)c(-c3c[nH]c4nc(N5[C@H]6CC[C@@H]5[C@@H](F)[C@H](N)C6)cnc34)ccc2n1 [Example 67, (1R,2S,3R,5S)-8-[7-(4-chloro-2-methyl-2H-indazol-5-yl)-5H-pyrrolo[2,3-b]pyrazin-3-yl]-2-fluoro-8-azabicyclo[3.2.1]octan-3-amine] are within 1.5-fold of each other in IC50: 0.055 µM for the first, 0.057 µM for the second.

Going from Cc1c(-c2n[nH]c3nc(N4[C@H]5CC[C@@H]4[C@@H](F)[C@@H](N)C5)c(CO)nc23)ccc2nn(C)c(Cl)c12 [Example 108, {6-[(1R,2S,3S,5S)-3-amino-2-fluoro-8-azabicyclo[3.2.1]octan-8-yl]-3-(3-chloro-2,4-dimethyl-2H-indazol-5-yl)-1H-pyrazolo[3,4-b]pyrazin-5-yl}methanol] to Cc1c(-c2n[nH]c3nc(N4[C@@H]5CC[C@H]4[C@@H](F)[C@@H](N)C5)c(CO)nc23)ccc2nn(C)c(Cl)c12 [Example 141, {6-[(1S,2S,3S,5R)-3-amino-2-fluoro-8-azabicyclo[3.2.1]octan-8-yl]-3-(3-chloro-2,4-dimethyl-2H-indazol-5-yl)-1H-pyrazolo[3,4-b]pyrazin-5-yl}methanol], the IC50 rises from 0.0066 µM to 0.013 µM (2-fold). The first is the more potent here.

COCc1nc2ccc(-c3c[nH]c4nc(N5[C@@H]6CC[C@H]5C[C@@H](N)C6)cnc34)c(Cl)c2s1 [Example 43, endo-8-{7-[7-chloro-2-(methoxymethyl)-1,3-benzothiazol-6-yl]-5H-pyrrolo[2,3-b]pyrazin-3-yl}-8-azabicyclo[3.2.1]octan-3-amine, hydrochloride salt] and Cc1nc2ccc(-c3c[nH]c4nc(N5[C@@H]6CC[C@H]5C[C@@H](N)C6)cnc34)c(Cl)c2s1 [Example 15, endo-8-[7-(7-chloro-2-methyl-1,3-benzothiazol-6-yl)-5H-pyrrolo[2,3-b]pyrazin-3-yl]-8-azabicyclo[3.2.1]octan-3-amine, methanesulfonic acid salt] are within 1.5-fold of each other in IC50: 0.0058 µM for the first, 0.0059 µM for the second.

Compared with N[C@H]1C[C@H]2CC[C@@H](C1)N2c1cnc2c(-c3ccc4[nH]c(=O)sc4c3Cl)c[nH]c2n1 [Example 23, 6-{3-[endo-3-amino-8-azabicyclo[3.2.1]octan-8-yl]-5H-pyrrolo[2,3-b]pyrazin-7-yl}-7-chloro-2,3-dihydro-1,3-benzothiazol-2-one, hydrochloride salt], N[C@H]1C[C@H]2CC[C@@H](C1)N2c1cnc2c(-c3ccc4oc(=O)[nH]c4c3Cl)c[nH]c2n1 [Example 19, 5-{3-[endo-3-amino-8-azabicyclo[3.2.1]octan-8-yl]-5H-pyrrolo[2,3-b]pyrazin-7-yl}-4-chloro-2,3-dihydro-1,3-benzoxazol-2-one, hydrochloride salt] is 9-fold higher in IC50: 0.0052 µM for the first, 0.047 µM for the second.

Cn1nc2ccc(-c3n[nH]c4nc(N5[C@H]6CC[C@@H]5[C@@H](F)[C@@H](N)C6)c(CO)nc34)c(F)c2c1Cl [Example 83, {6-[(1R,2S,3S,5S)-3-amino-2-fluoro-8-azabicyclo[3.2.1]octan-8-yl]-3-(3-chloro-4-fluoro-2-methyl-2H-indazol-5-yl)-1H-pyrazolo[3,4-b]pyrazin-5-yl}methanol] and CCn1nc2ccc(-c3n[nH]c4nc(N5[C@H]6CC[C@@H]5[C@@H](F)[C@@H](N)C6)c(CO)nc34)c(Cl)c2c1C#N [Example 126, 5-{6-[(1R,2S,3S,5S)-3-amino-2-fluoro-8-azabicyclo[3.2.1]octan-8-yl]-5-(hydroxymethyl)-1H-pyrazolo[3,4-b]pyrazin-3-yl}-4-chloro-2-ethyl-2H-indazole-3-carbonitrile] are within 1.5-fold of each other in IC50: 0.0086 µM for the first, 0.0097 µM for the second.

Going from CN(C)C(=O)c1nc2ccc(-c3c[nH]c4nc(N5[C@@H]6CC[C@H]5C[C@@H](N)C6)cnc34)c(Cl)c2s1 [Example 59, 6-{3-[endo-3-amino-8-azabicyclo[3.2.1]octan-8-yl]-5H-pyrrolo[2,3-b]pyrazin-7-yl}-7-chloro-N,N-dimethyl-1,3-benzothiazole-2-carboxamide, hydrochloride salt] to Cc1nc2ccc(-c3c[nH]c4nc(N5[C@@H]6CC[C@H]5C[C@@H](N)C6)cnc34)c(Cl)c2c(=O)[nH]1 [Example 21, 6-{3-[endo-3-amino-8-azabicyclo[3.2.1]octan-8-yl]-5H-pyrrolo[2,3-b]pyrazin-7-yl}-5-chloro-2-methyl-3,4-dihydroquinazolin-4-one], the IC50 falls from 0.018 µM to 0.011 µM (1.6-fold).

Cn1cc2c(Cl)c(-c3c[nH]c4nc(N5CCC6(CNC6)C(F)(F)C5)cnc34)ccc2n1 [Example 25, 7-[7-(4-chloro-2-methyl-2H-indazol-5-yl)-5H-pyrrolo[2,3-b]pyrazin-3-yl]-5,5-difluoro-2,7-diazaspiro[3.5]nonane, hydrochloride salt] and Cn1cc2c(F)c(-c3c[nH]c4nc(N5[C@@H]6CC[C@H]5C[C@@H](N)C6)cnc34)ccc2n1 [Example 38, endo-8-[7-(4-fluoro-2-methyl-2H-indazol-5-yl)-5H-pyrrolo[2,3-b]pyrazin-3-yl]-8-azabicyclo[3.2.1]octan-3-amine] are within 1.5-fold of each other in IC50: 0.052 µM for the first, 0.053 µM for the second.

Compared with CCn1nc2ccc(-c3n[nH]c4nc(N5[C@H]6CC[C@@H]5[C@@H](F)[C@@H](N)C6)c(C)nc34)c(Cl)c2c1C#N [Example 127, 5-{6-[(1R,2S,3S,5S)-3-amino-2-fluoro-8-azabicyclo[3.2.1]octan-8-yl]-5-methyl-1H-pyrazolo[3,4-b]pyrazin-3-yl}-4-chloro-2-ethyl-2H-indazole-3-carbonitrile, hydrochloride salt], Cc1nc2ccc(-c3n[nH]c4nc(N5[C@@H]6CC[C@H]5[C@@H](F)[C@@H](N)C6)c(CO)nc34)c(Cl)c2s1 [Example 140, {6-[(1S,2S,3S,5R)-3-amino-2-fluoro-8-azabicyclo[3.2.1]octan-8-yl]-3-(7-chloro-2-methyl-1,3-benzothiazol-6-yl)-1H-pyrazolo[3,4-b]pyrazin-5-yl}methanol] is 1.8-fold lower in IC50: 0.014 µM for the first, 0.0077 µM for the second. The second is the more potent here.

COc1cnc2ccc(-c3n[nH]c4nc(N5[C@@H]6CC[C@H]5C[C@@H](N)C6)c(C)nc34)c(Cl)c2n1 [Example 135, endo-8-[3-(5-chloro-3-methoxyquinoxalin-6-yl)-5-methyl-1H-pyrazolo[3,4-b]pyrazin-6-yl]-8-azabicyclo[3.2.1]octan-3-amine] and COc1cnc2ccc(-c3n[nH]c4nc(N5[C@@H]6CC[C@H]5CNC6)c(C)nc34)c(Cl)c2n1 [Example 119, 8-Chloro-7-(6-{3,8-diazabicyclo[3.2.1]octan-8-yl}-5-methyl-1H-pyrazolo[3,4-b]pyrazin-3-yl)-2-methoxyquinoxaline] are within 1.5-fold of each other in IC50: 0.016 µM for the first, 0.014 µM for the second.

N[C@H]1C[C@@H]2CC[C@H]([C@H]1F)N2c1nc2[nH]nc(-c3ccc4ncc(N5CCOCC5)nc4c3Cl)c2nc1CO [Example 147, {6-[(1R,2S,3S,5S)-3-amino-2-fluoro-8-azabicyclo[3.2.1]octan-8-yl]-3-[5-chloro-3-(morpholin-4-yl)quinoxalin-6-yl] 1H-pyrazolo[3,4-b]pyrazin-5-yl}methanol] and COc1cc2c(Cl)c(-c3n[nH]c4nc(N5[C@H]6CC[C@@H]5[C@@H](F)[C@@H](N)C6)c(CO)nc34)ccc2nc1C [Example 100, {6-[(1R,2S,3S,5S)-3-amino-2-fluoro-8-azabicyclo[3.2.1]octan-8-yl]-3-(5-chloro-3-methoxy-2-methylquinolin-6-yl)-1H-pyrazolo[3,4-b]pyrazin-5-yl}methanol] are within 1.5-fold of each other in IC50: 0.014 µM for the first, 0.012 µM for the second.

Cn1nc2ccc(-c3n[nH]c4nc(N5[C@@H]6CCC[C@H]5CNC6)c(CO)nc34)c(Cl)c2c1Cl [Example 125] and Cn1nc2ccc(-c3n[nH]c4nc(N5[C@@H]6CC[C@H]5CNC6)c(CO)nc34)c(Cl)c2c1Cl [Example 86, {6-[3,8-diazabicyclo[3.2.1]octan-8-yl]-3-(3,4-dichloro-2-methyl-2H-indazol-5-yl)-1H-pyrazolo[3,4-b]pyrazin-5-yl}methanol] are within 1.5-fold of each other in IC50: 0.0071 µM for the first, 0.0072 µM for the second.

Going from Cn1cnc2ccc(-c3c[nH]c4nc(N5[C@@H]6CC[C@H]5C[C@@H](N)C6)cnc34)c(Cl)c2c1=O [Example 56, 6-{3-[endo-3-amino-8-azabicyclo[3.2.1]octan-8-yl]-5H-pyrrolo[2,3-b]pyrazin-7-yl}-5-chloro-3-methyl-3,4-dihydroquinazolin-4-one, hydrochloride salt] to Cn1nc2ccc(-c3n[nH]c4nc(N5[C@@H]6CC[C@H]5C[C@@](C)(N)C6)c(CO)nc34)c(Cl)c2c1Cl [Example 116, {6-[endo-3-amino-3-methyl-8-azabicyclo[3.2.1]octan-8-yl]-3-(3,4-dichloro-2-methyl-2H-indazol-5-yl)-1H-pyrazolo[3,4-b]pyrazin-5-yl}methanol], the IC50 falls from 0.021 µM to 0.0075 µM (2.8-fold).

Cn1nc2ccc(-c3n[nH]c4nc(N5CCC(C)(N)CC5)c(CO)nc34)c(Cl)c2c1Cl [Example 110, [6-(4-amino-4-methylpiperidin-1-yl)-3-(3,4-dichloro-2-methyl-2H-indazol-5-yl)-1H-pyrazolo[3,4-b]pyrazin-5-yl]methanol] was tested, and the IC50 was 0.007 µM.
